Experiments:
Assay type in all cases: in vivo
[1] = test system: arrhythmias after coronary ligation; experiment: Antiarrhythmic Activity, dog coronary ligation model; settings: for reduction of ectopic beats on day 2 (max. effects) / antagonism of arrhythmias on day 2 (max. effects): 48 h after coronary ligation; for reduction of ectopic beats on day 1 (max. effects) / antagonism of arrhythmias on day 2 (max. effects): 2. dog
Protocol: 4. Antiarrhythmic Activity
The compound of Example 9 was tested for antiarrhythmic activity in the dog coronary ligation model (method: Harris, A., Circulation Res. 1, 1318-1328, 1950).

[2] = test system: von Bezold-Jarisch reflex evoked by 5HT; experiment: Antagonism of the von Bezold-Jarisch reflex evoked by 5HT in the anaesthetised rat; settings: iv, anaesthetised male rats, i.v., 5-HT 6-20 μg/kg i.v., heart rate, read-out: ED50 (reduction of the 5HT-evoked response to 50% of the control response)
Protocol: 1. Antagonism of the von Bezold-Jarisch reflex
The compounds were evaluated for antagonism of the von Bezold-Jarisch reflex evoked by 5HT in the anaesthetised rat according to the following method:
Male rats 250-350 g, were anaesthetised with urethane (1.25 g/kg intraperitoneally) and blood pressure and heart rate recorded as described by Fozard J. R. et al., J. Cardiovasc. Pharmacol. 2, 229-245 (1980). A submaximal dose of 5-HT (6-20 μg/kg) was given repeatedly by the intravenous route and changes in heart rate quantified. Test Compounds were given intravenously and the concentration required to reduce the 5HT-evoked response to 50% of the control response (ED50) was then determined.

[3] = test system: Radiation Induced Nausea and Vomiting; experiment: Inhibition of Radiation Induced Nausea and Vomiting (X-ray, ferret); settings: for No. of animals completely protected/No. of animals used: 2 to 4 minutes before irradiation; for Latency period, Group Mean (±s.e.m.): taken as 120 minutes in animals completely protected, vehicle 19.4 (±1.1); for No. of emetic episodes, Group Mean (±s.e.m.): vehicle 28.8 (±1.3)
Excerpt: 3. Inhibition of Radiation Induced Nausea and Vomiting.
Ferrets with surgically implanted indwelling venous cannulae were restrained in a purposely constructed perspex box, and exposed to ionising radiation from an X-ray source. The X-ray source (Machlett, Model OEG-50, Tungsten Anode) was approximately 25 cm from the upper surface of the animal, and was operated at 50 Kv and 20 mA through a 1 mm beryllium window and 0.18 mm aluminium filtration. The whole body of each animal was irradiated for 10.4 minutes at a dose rate of 300 rad/minute. At the completion of irradiation animals were put back in their pens and observed for at least 120 minutes. The time from the start of irradiation to the first emetio episode (latency period), and the number of emetic episodes were recorded. […] The test compound was injected intravenously 2 to 4 minutes before the start of irradiation.

[4] = test system: emetic response (cisplatin); experiment: Inhibition of Chemotherapy Induced Nausea and Vomiting (cisplatin, ferret); settings: administered twice, cisplatin 10 mg/kg i.v., 5 hours
Excerpt: 2. Inhibition of Chemotherapy Induced Nausea and Vomiting
Adult male ferrets (initial body weight 1.3-1.8 kg) were individually housed, fed once daily (200 g Chum Puppy Food plus 50 g Lab Diet A) and were supplied with water ad libitum. Additionally, each animal was given 1/2 pint of milk daily during an acclimatization period.
To facilitate intravenous administration of drugs, a chronic indwelling catheter was surgically implanted into the jugular vein using a modification of the technique described by Florczyk and Schurig, 1981 (Pharmacol. Biochem. Behav., 14, 255-257). Prior to surgery each animal was sedated with ketamine hydrochloride (40 mg/animal intramuscularly) and anaesthetised with a halothane-N2 O--O2 mixture. A four day recovery period was allowed before commencement of an experiment.
For each group of animals, a preliminary study was carried out to establish an intravenous dose level of cisplatin which would give a consistent and reproducible emetic response. The appropriate dose of test compound was administered intravenously twice to each animal; 30 minutes before and 45 minutes after dosing with cisplatin. Running controls received vehicle and cisplatin only.
A single emetic response commenced when an animal assumed a characterrc posture with retching and was concluded when either vomitus was expelled or was present in the mouth as evidenced by a chewing movement.
All solutions were prepared in water for injection B. P. Cisplatin was prepared from vials of Neoplatin for injection (Mead Johnson; dose volume of […]).

COc1cc(N)c(Cl)cc1C(=O)NC1CCN2CCCC1C2 (racemic) [Example 9, (±)4-amino-5-chloro-2-methoxy-N-(4[1-azabicyclo-3,3,1]-nonyl])-benzamide]
effect on day 1-arrhythmias (max. effects) ([1]; 1. dog, 24 h after coronary ligation, 0.5-3.0 mg/kg): no effect
reduction of ectopic beats on day 2 (max. effects) ([1]; 1. dog, 2.0 mg/kg): 41%
reduction of ectopic beats on day 2 (max. effects) ([1]; 1. dog, 3.0 mg/kg): 76%
reduction of ectopic beats on day 1 (max. effects) ([1]; 24 h after coronary ligation, 20 mg/kg (so in the source)): 69%
reduction of ectopic beats on day 1 (max. effects) ([1]; 24 h after coronary ligation, 1,0 mg/kg): 63%
reduction of ectopic beats on day 1 (max. effects) ([1]; 24 h after coronary ligation, 3,0 mg/kg): 82%
antagonism of arrhythmias on day 2 (max. effects) ([1]; 0.5 mg/kg): 89%
antagonism of arrhythmias on day 2 (max. effects) ([1]; 1.0 mg/kg): 100%
ED50 [2]: 3.3 µg/kg
No. of animals completely protected/No. of animals used ([3]; 0.25 mg/kg i.v.): 1/4
Latency period, Group Mean (±s.e.m.) ([3]; 0.25 mg/kg i.v., P < 0.05): 64.0 (±18.7)
No. of emetic episodes, Group Mean (±s.e.m.) ([3]; 0.25 mg/kg i.v., P < 0.05): 7.8 (±3.3)
No. of animals completely protected/No. of animals used ([3]; 1.25 mg/kg i.v.): 2/5
Latency period, Group Mean (±s.e.m.) ([3]; 1.25 mg/kg i.v., P < 0.01): 79.2 (±16.7)
No. of emetic episodes, Group Mean (±s.e.m.) ([3]; 1.25 mg/kg i.v., P < 0.01): 1.2 (±0.6)
No. of animals completely protected/No. of animals used ([4]; 0.65 mg/kg i.v.): 1/6
No. of animals completely protected/No. of animals used ([4]; 1.25 mg/kg i.v.): 4/6
No. of animals completely protected/No. of animals used ([4]; 2.5 mg/kg i.v.): 3/6

— patent US4786643A, “Treatment of migraine, cluster headaches and trigeminal neuralgia” (Beecham Group p.l.c., priority 1985, dated 1988)
